Experimental data: patent US9517228B2, “Cannabinoid receptor antagonists/inverse agonists useful for treating metabolic disorders, including obesity and diabetes” (Jenrin Discovery, priority 2012, dated 2016)

Tested on: not given
Experiment: not given
Settings: type 2 diabetes patients not on other anti-diabetic medications, six months of treatment, baseline value 7.9; cited from earlier work

Row | Structure (SMILES) | HbA1c levels lowered
1 | Cc1c(C(=O)NN2CCCCC2)nn(-c2ccc(Cl)cc2Cl)c1-c1ccc(Cl)cc1 [rimonabant] | 0.8%

Biological target: CB1R (Mus musculus (Mouse), UniProt P47746)
Sequence (P47746 whole entry): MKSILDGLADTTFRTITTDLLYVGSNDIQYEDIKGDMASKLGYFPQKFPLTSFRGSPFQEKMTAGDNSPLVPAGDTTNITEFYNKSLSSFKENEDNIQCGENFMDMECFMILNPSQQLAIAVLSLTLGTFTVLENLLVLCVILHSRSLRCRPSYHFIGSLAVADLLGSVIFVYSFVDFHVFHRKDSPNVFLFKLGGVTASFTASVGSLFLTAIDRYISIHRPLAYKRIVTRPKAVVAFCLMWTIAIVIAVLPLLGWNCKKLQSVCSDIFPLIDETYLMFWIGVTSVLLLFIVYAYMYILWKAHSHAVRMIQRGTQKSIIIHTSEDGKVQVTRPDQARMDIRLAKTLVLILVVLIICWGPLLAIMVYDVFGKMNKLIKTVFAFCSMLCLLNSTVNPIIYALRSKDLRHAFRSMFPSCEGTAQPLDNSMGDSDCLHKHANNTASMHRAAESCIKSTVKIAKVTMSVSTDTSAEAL
Experiment: CB1R competition displacement binding with [3H]CP-55,940
Settings: [3H]CP-55,940 radioligand, crude membranes from mouse brain, triplicates; read-out: CB1 IC50
Protocol: Compound binding to CB1R was assessed in competition displacement assays using [3H]CP-55,940 as the radioligand and crude membranes from mouse brain. See Tam, J., Vemuri, V. K., Liu, J., Batkai, S., Mukhopadhyay, B., Godlewski, G., Osei-Hyiaman, D., Ohnuma, S., Ambudkar, S. V., Pickel, J., et al., J. Clin. Invest. 2010, 120, 2953-2966. All data were in triplicates with Ki values determined from three independent experiments.

Row | Structure (SMILES) | IC50
2 | NC(=O)CN/C(=N\S(=O)(=O)c1ccc(Cl)cc1)N1C[C@H](c2ccccc2)C(c2ccc(Cl)cc2)=N1 [Example 1] | < 100 nM
3 | NC(=O)CN/C(=N\S(=O)(=O)c1ccc(Cl)cc1)N1C[C@@H](c2ccccc2)C(c2ccc(Cl)cc2)=N1 [Example 1a] | > 1000 nM
4 | C[C@@H](O)[C@H](N/C(=N\S(=O)(=O)c1ccc(Cl)cc1)N1C[C@H](c2ccccc2)C(c2ccc(Cl)cc2)=N1)C(N)=O [Example 2, (2S,3R)-2-((S)-3-(4-chlorophenyl)-N′-((4-chlorophenyl)sulfonyl)-4-phenyl-4,5-dihydro-1H-pyrazole-1-carboximidamido)-3-hydroxybutanamide] | < 100 nM
5 | C[C@@H](O)[C@H](N/C(=N\S(=O)(=O)c1ccc(Cl)cc1)N1C[C@@H](c2ccccc2)C(c2ccc(Cl)cc2)=N1)C(N)=O [Example 2a, (2S,3R)-2-((R)-3-(4-chlorophenyl)-N′-((4-chlorophenyl)sulfonyl)-4-phenyl-4,5-dihydro-1H-pyrazole-1-carboximidamido)-3-hydroxybutanamide] | > 1000 nM
6 | NC(=O)[C@H](CO)N/C(=N\S(=O)(=O)c1ccc(Cl)cc1)N1C[C@H](c2ccccc2)C(c2ccc(Cl)cc2)=N1 [Example 3] | < 100 nM

Other lines, results leading:

Row | IC50 | Structure (SMILES)
7 | 500 to 1000 nM | NC(=O)[C@H](CO)N/C(=N\S(=O)(=O)c1ccc(Cl)cc1)N1C[C@@H](c2ccccc2)C(c2ccc(Cl)cc2)=N1 [Example 3a]
8 | < 100 nM | CC(C)[C@H](N/C(=N\S(=O)(=O)c1ccc(Cl)cc1)N1C[C@H](c2ccccc2)C(c2ccc(Cl)cc2)=N1)C(N)=O [Example 4]
9 | > 1000 nM | CC(C)[C@H](N/C(=N\S(=O)(=O)c1ccc(Cl)cc1)N1C[C@@H](c2ccccc2)C(c2ccc(Cl)cc2)=N1)C(N)=O [Example 4a]
